Among the data in US9221795B2, “Phosphatidylinositol 3-kinase inhibitors” (Gilead Sciences, Inc., priority 2013, dated 2015) are IC50 values, retold here.

The target in one test is PI3Kβ (Homo sapiens (Human), UniProt P42338). Nature of the test: Enzymatic activity of PI3K isoforms, TR-FRET assay (PI3Kβ). The format is biochemical. The settings on record: 2× Km ATP, geometric mean if more than one value. The method, then:
Enzymatic activity of the class I PI3K isoforms in the presence of the compounds of Table 1 and Compounds X, Y and Z was measured using a time-resolved fluorescence resonance energy transfer (TR-FRET) assay. The TR-FRET assay was used to monitor formation of the product 3,4,5-inositol triphosphate molecule (PIP3) as it competed with fluorescently labeled PIP3 for binding to the GRP-1 pleckstrin homology domain protein. An increase in […] product results in a decrease in TR-FRET signal as the labeled fluorophore is displaced from the GRP-1 protein binding site.
Class I PI3K isoforms were expressed and purified as heterodimeric recombinant proteins. All assay reagents and buffers for the TR-FRET assay were purchased from Millipore. PI3K isoforms were assayed under initial rate conditions in the presence of 25 mM Hepes (pH 7.4), and 2× Km ATP (75-500 μM), 2 μM PIP2, 5% glycerol, 5 mM MgCl2, 50 mM NaCl, 0.05% (v/v) Chaps, 1 mM dithiothreitol, 1% (v/v) DMSO at the following concentrations for each isoforms: PI3Kα, PI3Kβ, and PI3Kδ between 25 and 50 pM, and PI3Kγ at 2 nM. After an assay reaction time of 30 minutes at 25° C., reactions were terminated with a final concentration of 10 mM EDTA, 10 nM labeled-PIP3, and 35 nM Europium labeled GRP-1 detector protein before reading TR-FRET on an Envision plate reader (Ex: 340 nm; Em: 615/665 nm; […] delay and 500 μs read window).
Data were normalized based on positive ([…] wortmanin) and negative (DMSO) controls. α, β, δ, and γ IC50 values were calculated from the fit of the dose-response curves to a four-parameter equation. All IC50 values represent geometric mean values if more than one value was obtained. IC50 values were reported in units of nM.
For orientation: In TR-FRET formats the signal depends on donor and acceptor labels being close together.

The target in the next test is PI3Kδ (Homo sapiens (Human), UniProt O00329). Nature of the test: Enzymatic activity of PI3K isoforms, TR-FRET assay (PI3Kδ). The format is biochemical. The settings on record: 2× Km ATP, geometric mean if more than one value. The gist of the method: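 Recombinant heterodimeric PI3Kβ or PI3Kδ (25-50 pM) was run with 2 μM PIP2 and 2× Km ATP (75-500 μM) at pH 7.4, for 30 min at 25° C. PIP3 formation was detected by TR-FRET displacement of labeled PIP3 from Eu-GRP-1. IC50 values in nM come from four-parameter fits, as geometric means.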
Sequence of PI3Kδ (O00329 whole entry, canonical isoform): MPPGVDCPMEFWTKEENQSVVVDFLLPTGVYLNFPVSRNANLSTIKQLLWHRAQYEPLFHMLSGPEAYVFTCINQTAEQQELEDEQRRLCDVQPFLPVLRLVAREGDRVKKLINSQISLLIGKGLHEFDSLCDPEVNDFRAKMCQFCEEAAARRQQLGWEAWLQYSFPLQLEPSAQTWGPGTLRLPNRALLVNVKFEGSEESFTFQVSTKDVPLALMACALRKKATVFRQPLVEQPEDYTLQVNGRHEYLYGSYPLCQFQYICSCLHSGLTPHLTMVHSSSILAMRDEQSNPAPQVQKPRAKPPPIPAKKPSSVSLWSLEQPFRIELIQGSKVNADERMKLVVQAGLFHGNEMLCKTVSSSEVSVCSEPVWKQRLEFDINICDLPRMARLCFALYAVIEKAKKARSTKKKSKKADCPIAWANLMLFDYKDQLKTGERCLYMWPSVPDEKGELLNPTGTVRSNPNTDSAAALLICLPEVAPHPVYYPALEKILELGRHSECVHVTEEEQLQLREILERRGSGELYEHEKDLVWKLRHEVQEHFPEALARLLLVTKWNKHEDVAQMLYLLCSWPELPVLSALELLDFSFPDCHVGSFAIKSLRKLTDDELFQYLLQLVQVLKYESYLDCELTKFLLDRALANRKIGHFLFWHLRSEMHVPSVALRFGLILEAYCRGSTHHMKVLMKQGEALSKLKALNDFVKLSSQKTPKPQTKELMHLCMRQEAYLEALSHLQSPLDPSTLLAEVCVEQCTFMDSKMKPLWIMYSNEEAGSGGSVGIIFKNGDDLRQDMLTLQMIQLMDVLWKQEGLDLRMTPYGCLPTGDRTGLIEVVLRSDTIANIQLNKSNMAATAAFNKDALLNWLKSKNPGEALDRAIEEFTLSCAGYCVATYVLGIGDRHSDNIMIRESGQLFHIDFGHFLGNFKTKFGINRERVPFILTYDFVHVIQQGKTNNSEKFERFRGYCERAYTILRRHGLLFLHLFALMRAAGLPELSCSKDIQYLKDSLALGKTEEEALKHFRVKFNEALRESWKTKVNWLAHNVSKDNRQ
Sequence of PI3Kδ (P27986 whole entry partner, canonical isoform): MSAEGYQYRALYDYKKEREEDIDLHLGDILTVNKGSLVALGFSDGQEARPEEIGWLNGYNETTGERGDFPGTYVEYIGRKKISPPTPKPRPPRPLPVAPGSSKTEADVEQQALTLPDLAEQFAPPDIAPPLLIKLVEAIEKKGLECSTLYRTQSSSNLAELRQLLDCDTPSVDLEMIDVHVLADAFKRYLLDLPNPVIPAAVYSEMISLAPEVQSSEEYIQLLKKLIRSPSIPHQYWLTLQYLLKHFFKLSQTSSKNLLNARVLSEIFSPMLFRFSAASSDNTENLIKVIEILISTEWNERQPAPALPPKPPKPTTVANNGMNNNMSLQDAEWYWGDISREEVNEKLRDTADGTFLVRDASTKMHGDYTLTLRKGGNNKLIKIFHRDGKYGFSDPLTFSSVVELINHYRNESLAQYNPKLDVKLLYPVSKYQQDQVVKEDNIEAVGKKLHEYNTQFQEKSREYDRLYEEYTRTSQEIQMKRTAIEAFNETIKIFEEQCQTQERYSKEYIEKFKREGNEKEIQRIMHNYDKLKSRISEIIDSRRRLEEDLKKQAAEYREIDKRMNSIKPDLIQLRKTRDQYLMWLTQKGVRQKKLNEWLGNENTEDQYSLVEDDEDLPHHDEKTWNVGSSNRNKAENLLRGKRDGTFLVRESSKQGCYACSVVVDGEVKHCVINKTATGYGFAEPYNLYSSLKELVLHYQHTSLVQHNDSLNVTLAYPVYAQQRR

Broadly, the IC50 is the point on the concentration scale where inhibition reaches its midpoint. Higher therefore signals weaker potency.

Sequence of PI3Kβ (P42338 whole entry, the tested form may be a part, canonical isoform): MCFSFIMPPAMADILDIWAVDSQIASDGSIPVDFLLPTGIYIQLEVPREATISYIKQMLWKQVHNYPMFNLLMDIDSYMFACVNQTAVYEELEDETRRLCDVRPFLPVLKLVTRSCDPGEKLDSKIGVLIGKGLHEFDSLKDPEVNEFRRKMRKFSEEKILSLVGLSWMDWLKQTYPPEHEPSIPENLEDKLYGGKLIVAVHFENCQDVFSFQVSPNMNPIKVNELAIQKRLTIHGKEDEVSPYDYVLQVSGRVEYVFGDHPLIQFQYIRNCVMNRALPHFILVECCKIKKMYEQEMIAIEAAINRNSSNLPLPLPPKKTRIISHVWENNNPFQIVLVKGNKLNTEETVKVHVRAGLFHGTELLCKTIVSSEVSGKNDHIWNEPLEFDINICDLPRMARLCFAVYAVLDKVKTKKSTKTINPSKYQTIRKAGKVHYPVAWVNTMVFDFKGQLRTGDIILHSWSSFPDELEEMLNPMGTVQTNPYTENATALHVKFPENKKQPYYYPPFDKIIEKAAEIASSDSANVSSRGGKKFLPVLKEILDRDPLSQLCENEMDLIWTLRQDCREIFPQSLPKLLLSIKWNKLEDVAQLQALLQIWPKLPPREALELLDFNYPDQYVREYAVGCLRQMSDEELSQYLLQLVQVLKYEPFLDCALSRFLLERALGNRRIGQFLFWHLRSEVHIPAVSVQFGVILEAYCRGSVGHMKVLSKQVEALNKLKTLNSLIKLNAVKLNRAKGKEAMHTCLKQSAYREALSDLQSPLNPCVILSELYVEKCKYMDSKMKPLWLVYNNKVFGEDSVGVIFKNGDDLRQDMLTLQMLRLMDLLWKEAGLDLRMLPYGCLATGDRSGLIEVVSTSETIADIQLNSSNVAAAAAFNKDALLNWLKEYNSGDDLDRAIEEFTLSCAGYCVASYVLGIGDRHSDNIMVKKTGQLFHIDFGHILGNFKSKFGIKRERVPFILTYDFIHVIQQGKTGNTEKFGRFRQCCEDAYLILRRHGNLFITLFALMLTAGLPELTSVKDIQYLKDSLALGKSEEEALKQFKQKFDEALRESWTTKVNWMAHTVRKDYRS
Sequence of PI3Kβ (P27986 whole entry partner, the tested form may be a part, canonical isoform): as the sequence (P27986 whole entry partner, canonical isoform) above

Regarding `CC[C@H](Nc1nc(N)nc(N)c1C#N)c1nc2cccc(Cl)c2c(=O)n1-c1cnc(N)cc1C` (atropisomer, axis not shown) [Compound 91, (S)-2,4-diamino-6-((1-(3-(6-amino-4-methylpyridin-3-yl)-5-chloro-4-oxo-3,4-dihydroquinazolin-2-yl)propyl)amino)pyrimidine-5-carbonitrile], the IC50 against PI3Kβ amounted to 99 nM; on PI3Kδ, 4 nM.

`Cc1cc(N)ncc1-n1c([C@H](C)Nc2nc(N)nc(N)c2C#N)nc2cccc(Cl)c2c1=O` (atropisomer, axis not shown) [Compound 93, (S)-2,4-diamino-6-((1-(3-(6-amino-4-methylpyridin-3-yl)-5-chloro-4-oxo-3,4-dihydroquinazolin-2-yl)ethyl)amino)pyrimidine-5-carbonitrile]: the figures for the 50% inhibitory concentration (IC50) on PI3Kβ and against PI3Kδ were 30 nM and 2 nM, respectively.

As to `Cc1cc(N)ncc1-n1c([C@H](C)Nc2nc(N)nc(N)c2C#N)nc2c(Cl)ccc(Cl)c2c1=O` (atropisomer, axis not shown) [Compound 95, (S)-2,4-diamino-6-((1-(3-(6-amino-4-methylpyridin-3-yl)-5,8-dichloro-4-oxo-3,4-dihydroquinazolin-2-yl)ethyl)amino)pyrimidine-5-carbonitrile], the figures for the IC50 against PI3Kβ and at PI3Kδ were 28 nM and 4 nM, respectively.

Turning to `Cc1cc(N)ncc1-n1c([C@@H](Nc2nc(N)nc(N)c2C#N)C2CC2)nc2c(Cl)ccc(Cl)c2c1=O` (atropisomer, axis not shown) [Compound 98, (S)-2,4-diamino-6-(((3-(6-amino-4-methylpyridin-3-yl)-5,8-dichloro-4-oxo-3,4-dihydroquinazolin-2-yl)(cyclopropyl)methyl)amino)pyrimidine-5-carbonitrile], the IC50 worked out at 160 nM against PI3Kβ and 21 nM at PI3Kδ.

Consider `Cc1cc(N)ncc1-n1c([C@@H](Nc2nc(N)nc(N)c2C#N)C2CC2)nc2c(Cl)ccc(Cl)c2c1=O` (atropisomer, axis not shown) [Compound 99, (S)-2,4-diamino-6-(((3-(6-amino-4-methylpyridin-3-yl)-5,8-dichloro-4-oxo-3,4-dihydroquinazolin-2-yl)(cyclopropyl)methyl)amino)pyrimidine-5-carbonitrile], for which the figures for the IC50 at PI3Kβ and against PI3Kδ were 3600 nM and 640 nM, respectively.

For the compound `C[C@H](Nc1nc(N)nc(N)c1Cl)c1nc2c(Cl)cc(F)cc2c(=O)n1-c1ccc(N)nc1` [Compound 81, (S)-3-(6-aminopyridin-3-yl)-8-chloro-2-(1-((2,6-diamino-5-chloropyrimidin-4-yl)amino)ethyl)-6-fluoroquinazolin-4(3H)-one], the IC50 on PI3Kβ stood at 180 nM; against PI3Kδ, 84 nM.

With `C[C@H](Nc1nc(N)nc(N)c1Cl)c1nc2c(Cl)ccc(Cl)c2c(=O)n1-c1ccc(N)nc1` [Compound 83, (S)-3-(6-aminopyridin-3-yl)-5,8-dichloro-2-(1-((2,6-diamino-5-chloropyrimidin-4-yl)amino)ethyl)quinazolin-4(3H)-one], the IC50 against PI3Kβ amounted to 42 nM; against PI3Kδ, 12 nM.

Consider `CC[C@H](Nc1nc(N)nc(N)c1Cl)c1nc2cccc(Cl)c2c(=O)n1-c1ccc(N)nc1` [Compound 86, (S)-3-(6-aminopyridin-3-yl)-5-chloro-2-(1-((2,6-diamino-5-chloropyrimidin-4-yl)amino)propyl)quinazolin-4(3H)-one], for which the IC50 on PI3Kβ came out at 35 nM; at PI3Kδ, 9 nM.

`Nc1ccc(-n2c([C@@H](Nc3nc(N)nc(N)c3Cl)C3CC3)nc3cccc(Cl)c3c2=O)cn1` [Compound 89, (S)-3-(6-aminopyridin-3-yl)-5-chloro-2-(cyclopropyl((2,6-diamino-5-chloropyrimidin-4-yl)amino)methyl)quinazolin-4(3H)-one]: the IC50 against PI3Kβ came to 27 nM; on PI3Kδ it was 9 nM.

`N#Cc1c(N)nc(N)nc1N[C@H](c1nc2cccc(Cl)c2c(=O)n1-c1ccc(N)nc1)C1CC1` [Compound 90, (S)-2,4-diamino-6-(((3-(6-aminopyridin-3-yl)-5-chloro-4-oxo-3,4-dihydroquinazolin-2-yl)(cyclopropyl)methyl)amino)pyrimidine-5-carbonitrile]: the IC50 against PI3Kβ was found to be 2 nM; against PI3Kδ, 0.6 nM.

Consider `C[C@H](Nc1nc(N)nc(N)c1Cl)c1nc2ccc(F)c(Cl)c2c(=O)n1-c1ccc(N)nc1` [Compound 100, (S)-3-(6-aminopyridin-3-yl)-5-chloro-2-(1-((2,6-diamino-5-chloropyrimidin-4-yl)amino)ethyl)-6-fluoroquinazolin-4(3H)-one], for which the IC50 on PI3Kβ amounted to 100 nM; against PI3Kδ, 48 nM.

`C[C@H](Nc1nc(N)nc(N)c1C#N)c1nc2ccc(F)c(Cl)c2c(=O)n1-c1ccc(N)nc1` [Compound 101, (S)-2,4-diamino-6-((1-(3-(6-aminopyridin-3-yl)-5-chloro-6-fluoro-4-oxo-3,4-dihydroquinazolin-2-yl)ethyl)amino)pyrimidine-5-carbonitrile]: the IC50 against PI3Kβ came out at 11 nM; against PI3Kδ, 8 nM.

With `CCC[C@H](Nc1nc(N)nc(N)c1Cl)c1nc2cccc(Cl)c2c(=O)n1-c1ccc(N)nc1` [Compound 102, (S)-3-(6-aminopyridin-3-yl)-5-chloro-2-(1-((2,6-diamino-5-chloropyrimidin-4-yl)amino)butyl)quinazolin-4(3H)-one], the IC50 against PI3Kβ is 62 nM; against PI3Kδ, 15 nM.

In the case of `CCC[C@H](Nc1nc(N)nc(N)c1C#N)c1nc2cccc(Cl)c2c(=O)n1-c1ccc(N)nc1` [Compound 103, (S)-2,4-diamino-6-((1-(3-(6-aminopyridin-3-yl)-5-chloro-4-oxo-3,4-dihydroquinazolin-2-yl)butyl)amino)pyrimidine-5-carbonitrile], the IC50 was determined as 3 nM against PI3Kβ and 1 nM against PI3Kδ.

Take `CCC[C@H](Nc1nc(N)nc(N)c1Cl)c1nc2ccc(F)c(Cl)c2c(=O)n1-c1ccc(N)nc1` [Compound 104, (S)-3-(6-aminopyridin-3-yl)-5-chloro-2-(1-((2,6-diamino-5-chloropyrimidin-4-yl)amino)butyl)-6-fluoroquinazolin-4(3H)-one]: the IC50 against PI3Kβ was determined as 530 nM; at PI3Kδ, 94 nM.

`CCC[C@H](Nc1nc(N)nc(N)c1C#N)c1nc2ccc(F)c(Cl)c2c(=O)n1-c1ccc(N)nc1` [Compound 105, (S)-2,4-diamino-6-((1-(3-(6-aminopyridin-3-yl)-5-chloro-6-fluoro-4-oxo-3,4-dihydroquinazolin-2-yl)butyl)amino)pyrimidine-5-carbonitrile]: the IC50 on PI3Kβ is 41 nM; against PI3Kδ it was 9 nM.

As to `Nc1ccc(-n2c([C@@H](Nc3nc(N)nc(N)c3Cl)C3CC3)nc3c(F)ccc(Cl)c3c2=O)cn1` [Compound 106, (S)-3-(6-aminopyridin-3-yl)-5-chloro-2-(cyclopropyl((2,6-diamino-5-chloropyrimidin-4-yl)amino)methyl)-8-fluoroquinazolin-4(3H)-one], the IC50 at PI3Kβ came to 180 nM; at PI3Kδ, 31 nM.

With `N#Cc1c(N)nc(N)nc1N[C@H](c1nc2c(F)ccc(Cl)c2c(=O)n1-c1ccc(N)nc1)C1CC1` [Compound 107, (S)-2,4-diamino-6-(((3-(6-aminopyridin-3-yl)-5-chloro-8-fluoro-4-oxo-3,4-dihydroquinazolin-2-yl)(cyclopropyl)methyl)amino)pyrimidine-5-carbonitrile], the figures for the IC50 on PI3Kβ and against PI3Kδ were 3 nM and 1 nM, respectively.

As to `C[C@H](Nc1nc(N)nc(N)c1C#N)c1nc2cccc(Cl)c2c(=O)n1-c1cncc(N)c1` [Compound 108, (S)-2,4-diamino-6-((1-(3-(5-aminopyridin-3-yl)-5-chloro-4-oxo-3,4-dihydroquinazolin-2-yl)ethyl)amino)pyrimidine-5-carbonitrile], the results for the IC50 against PI3Kβ and against PI3Kδ were 33 nM and 0.6 nM, respectively.

Turning to `C[C@H](Nc1ncnc(N)c1C#N)c1nc2cccc(Cl)c2c(=O)n1-c1cncc(N)c1` [Compound 109, (S)-4-amino-6-((1-(3-(5-aminopyridin-3-yl)-5-chloro-4-oxo-3,4-dihydroquinazolin-2-yl)ethyl)amino)pyrimidine-5-carbonitrile], the IC50 at PI3Kβ was found to be 460 nM; on PI3Kδ, 2 nM.
